These are literature values, as cited in patent publication US20210352892A1, “MACROMOLECULAR AND NONPARTICULATE AGROCHEMICALS TO REDUCE VAPOR DRIFT” (University of Utah Research Foundation, priority 2019, published 2021).

For this data set the following is noted: at 25 ° C.

Consider `COc1c(Cl)ccc(Cl)c1C(=O)O` [dicamba, 2-methoxy-3,6-dicholorobenzoic acid], for which the vapor pressure is reported as 4.5 mPa.
